The values that follow are results of earlier work, collected in US7807830B2, “Manufacture of pure hydralazine salts” (Navinta LLC, priority 2005, dated 2010).

Counter-ions that a name gives are not always drawn. Like-named read-outs stand apart in the source and are kept apart here.

Consider `NNc1nncc2ccccc12` [Hydralazine hydrochloride, 1-hydrazinophthalazine], for which, for the setting “given intravenously”, the onset of action was 10 to 20 min. Besides, for the setting “in vivo”, the duration of action is 3 to 4 h and the “maximum hypotensive effect in” value is 10 to 80 min. The onset of action (oral administration) was 10 to 30 min.
